# From ChEMBL document CHEMBL1201862, “PubChem BioAssay data set” (2004)
#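 Cultured in 96-well plates, cells were exposed to test compound for 48 hours across five concentrations. GI50 is the concentration that inhibits growth by half.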 The source made the active and inactive calls. No stated cut-off is given here; in the data, active = GI50 up to about 1.1 µM and inactive = higher.
# Legend:
# Test in all cases: NCI anticancer screen, dose series, 48 h
# MOLT-4 = test system: MOLT-4
# SN12C = test system: SN12C
# 786-0 = test system: 786-0
# RXF 393 = test system: RXF 393
# SF-268 = test system: SF-268
# OVCAR-3 = test system: OVCAR-3
# OVCAR-8 = test system: OVCAR-8
# OVCAR-4 = test system: OVCAR-4
# HOP-92 = test system: HOP-92
# M14 = test system: M14
# UACC-257 = test system: UACC-257
# HOP-62 = test system: HOP-62
# OVCAR-5 = test system: OVCAR-5
# TK-10 = test system: TK-10
# KM-20L2 = test system: KM-20L2
# SK-MEL-5 = test system: SK-MEL-5
# UO-31 = test system: UO-31
# RPMI-8226 = test system: RPMI-8226
# NCI-H460 = test system: NCI-H460
# IGROV-1 = test system: IGROV-1
# LXFL 529 = test system: LXFL 529
# XF498 = test system: XF498
# U-251 = test system: U-251
# NCI-H226 = test system: NCI-H226
# EKVX = test system: EKVX
# DMS-114 = test system: DMS-114
# CAKI-1 = test system: CAKI-1
# HL-60 = test system: HL-60
# DMS-273 = test system: DMS-273
# HCC 2998 = test system: HCC 2998
# SF-539 = test system: SF-539
# UACC-62 = test system: UACC-62
# K562 = test system: K562
# SK-OV-3 = test system: SK-OV-3
# LOX IMVI = test system: LOX IMVI
# KM12 = test system: KM12
# SW-620 = test system: SW-620
# SK-MEL-2 = test system: SK-MEL-2
# CCRF-CEM = test system: CCRF-CEM
# A498 = test system: A498
# SF-295 = test system: SF-295
# Malme-3M = test system: Malme-3M
# SK-MEL-28 = test system: SK-MEL-28
# NCI-H522 = test system: NCI-H522
# M19-MEL = test system: M19-MEL
# NCI-H23 = test system: NCI-H23
# SNB-19 = test system: SNB-19
# SNB-75 = test system: SNB-75
# HT-29 = test system: HT-29
# ACHN = test system: ACHN
# HCT-15 = test system: HCT-15
# COLO 205 = test system: COLO 205
# HOP-18 = test system: HOP-18
# A549 = test system: A549
# HCT-116 = test system: HCT-116
# MCF7 = test system: MCF7
# DLD-1 = test system: DLD-1
# SNB-78 = test system: SNB-78
# NCI/ADR-RES = test system: NCI/ADR-RES
structure (smiles),measurement,setting,value
COC(=O)[C@H](CC(C)C)NC(=O)[C@H](Cc1ccccc1)N1CC2C=CC1C2 (some centres not stated),GI50,MOLT-4,> 100 µM (inactive)
same,GI50,SN12C,> 100 µM (inactive)
same,GI50,786-0,> 100 µM (inactive)
same,GI50,RXF 393,> 100 µM (inactive)
same,GI50,SF-268,> 100 µM (inactive)
same,GI50,OVCAR-3,> 100 µM (inactive)
same,GI50,OVCAR-8,> 100 µM (inactive)
same,GI50,OVCAR-4,> 100 µM (inactive)
same,GI50,HOP-92,96.6 µM (inactive)
same,GI50,M14,> 100 µM (inactive)
same,GI50,UACC-257,> 100 µM (inactive)
same,GI50,HOP-62,> 100 µM (inactive)
same,GI50,OVCAR-5,> 100 µM (inactive)
same,GI50,TK-10,> 100 µM (inactive)
same,GI50,KM-20L2,> 100 µM (inactive)
same,GI50,SK-MEL-5,> 100 µM (inactive)
same,GI50,UO-31,> 100 µM (inactive)
same,GI50,RPMI-8226,29.1 µM (inactive)
same,GI50,NCI-H460,> 100 µM (inactive)
same,GI50,IGROV-1,> 100 µM (inactive)
same,GI50,LXFL 529,> 100 µM (inactive)
same,GI50,XF498,> 100 µM (inactive)
same,GI50,U-251,> 100 µM (inactive)
same,GI50,NCI-H226,> 100 µM (inactive)
same,GI50,EKVX,> 100 µM (inactive)
same,GI50,DMS-114,> 100 µM (inactive)
same,GI50,CAKI-1,> 100 µM (inactive)
same,GI50,HL-60,47.6 µM (inactive)
same,GI50,DMS-273,> 100 µM (inactive)
same,GI50,HCC 2998,> 100 µM (inactive)
same,GI50,SF-539,> 100 µM (inactive)
same,GI50,UACC-62,> 100 µM (inactive)
same,GI50,K562,> 100 µM (inactive)
same,GI50,SK-OV-3,> 100 µM (inactive)
same,GI50,LOX IMVI,> 100 µM (inactive)
same,GI50,KM12,> 100 µM (inactive)
same,GI50,SW-620,> 100 µM (inactive)
same,GI50,SK-MEL-2,> 100 µM (inactive)
same,GI50,CCRF-CEM,> 100 µM (inactive)
same,GI50,A498,> 100 µM (inactive)
same,GI50,SF-295,> 100 µM (inactive)
same,GI50,Malme-3M,> 100 µM (inactive)
same,GI50,SK-MEL-28,> 100 µM (inactive)
same,GI50,NCI-H522,> 100 µM (inactive)
same,GI50,M19-MEL,> 100 µM (inactive)
same,GI50,NCI-H23,> 100 µM (inactive)
same,GI50,SNB-19,> 100 µM (inactive)
same,GI50,SNB-75,> 100 µM (inactive)
same,GI50,HT-29,> 100 µM (inactive)
same,GI50,ACHN,> 100 µM (inactive)
same,GI50,HCT-15,> 100 µM
same,GI50,COLO 205,> 100 µM (inactive)
same,GI50,HOP-18,> 100 µM (inactive)
same,GI50,A549,> 100 µM (inactive)
COc1cc(C2(c3ncc[nH]3)SSSCC2O)ccc1O (configuration not stated),GI50,MOLT-4,16.5 µM (inactive)
same,GI50,SN12C,47.8 µM (inactive)
same,GI50,RXF 393,30.1 µM (inactive)
same,GI50,SF-268,15.8 µM (inactive)
same,GI50,OVCAR-3,32.2 µM (inactive)
same,GI50,OVCAR-8,36.9 µM (inactive)
same,GI50,OVCAR-4,22.2 µM (inactive)
same,GI50,HOP-92,6.25 µM (inactive)
same,GI50,HCT-116,32.6 µM (inactive)
same,GI50,UACC-257,18.4 µM (inactive)
same,GI50,HOP-62,> 66.4 µM (inactive)
same,GI50,OVCAR-5,> 100 µM (inactive)
same,GI50,KM-20L2,> 92.5 µM (inactive)
same,GI50,MCF7,39.6 µM (inactive)
same,GI50,SK-MEL-5,11.7 µM (inactive)
same,GI50,UO-31,65.9 µM (inactive)
same,GI50,RPMI-8226,22.6 µM (inactive)
same,GI50,NCI-H460,> 46.2 µM (inactive)
same,GI50,IGROV-1,47.2 µM (inactive)
same,GI50,DLD-1,58.5 µM (inactive)
same,GI50,XF498,> 71 µM (inactive)
same,GI50,U-251,> 56.2 µM (inactive)
same,GI50,NCI-H226,66.4 µM (inactive)
same,GI50,EKVX,94 µM (inactive)
same,GI50,DMS-114,18.2 µM (inactive)
same,GI50,CAKI-1,86.1 µM (inactive)
same,GI50,HL-60,29.6 µM (inactive)
same,GI50,DMS-273,30.1 µM (inactive)
same,GI50,HCC 2998,27.9 µM (inactive)
same,GI50,SF-539,> 59 µM (inactive)
same,GI50,UACC-62,22.6 µM (inactive)
same,GI50,K562,23.4 µM (inactive)
same,GI50,SK-OV-3,66.4 µM (inactive)
same,GI50,LOX IMVI,19.1 µM (inactive)
same,GI50,KM12,> 100 µM (inactive)
same,GI50,SW-620,33 µM (inactive)
same,GI50,SK-MEL-2,> 100 µM (inactive)
same,GI50,CCRF-CEM,11.9 µM (inactive)
same,GI50,A498,79.3 µM (inactive)
same,GI50,SF-295,39.1 µM (inactive)
same,GI50,SK-MEL-28,> 100 µM (inactive)
same,GI50,SNB-78,34.2 µM (inactive)
same,GI50,NCI/ADR-RES,> 40.6 µM (inactive)
same,GI50,NCI-H522,29.4 µM (inactive)
same,GI50,M19-MEL,12.2 µM (inactive)
same,GI50,NCI-H23,60.7 µM (inactive)
same,GI50,SNB-19,> 87.7 µM (inactive)
same,GI50,SNB-75,> 100 µM (inactive)
same,GI50,HT-29,38 µM (inactive)
same,GI50,HCT-15,33.1 µM
same,GI50,COLO 205,25.6 µM (inactive)
same,GI50,HOP-18,> 66.4 µM (inactive)
same,GI50,A549,> 57.4 µM (inactive)
